Experimental data reported in patent US8148391B2 (Cephalon, Inc., priority 2006, dated 2012).
Read-outs that look alike come from different tables or passages of the source.

Assays:
[1] = target: T1, baculovirus-expressed ALK (Homo sapiens, UniProt Q9UM73); assay: ALK Kinase Assay (ELISA-type, time-resolved fluorescence); type: biochemical
T1 construct: host or cells: baculovirus expression system
Procedure, shortened: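 Wells were coated with phospholipase C-γ at 10 μg/mL in Tris-buffered saline. Adding 30 ng/ml enzyme started the reaction, which ran at 37° C for 15 minutes before Eu-N1 PT66 antibody detection. Percent inhibition versus log10 concentration gave IC50 by variable-slope fit.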

[2] = target: T2, c-Met (cytoplasmic domain) (Homo sapiens, UniProt P08581); assay: c-Met Kinase Assay (same methods as for ALK, with modifications); type: biochemical
T2 construct: 10 ng/mL c-Met (cytoplasmic domain, Invitrogen Corporation #PV3143); purchased Invitrogen Corporation PV3143
Procedure, shortened: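 Steps: coat wells with PLC-γ (10 μg/mL, Tris-buffered saline); add 10 ng/mL c-Met cytoplasmic domain to initiate; incubate 15 min, 37° C; detect phosphoproduct via Eu-N1 PT66 antibody.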

[3] = ALK kinase inhibition, 1 μM ATP (Km level), read-out: ALK Activity
[4] = c-Met kinase inhibition, 1 μM ATP (Km level), read-out: cMet Activity
[5] = 1 μM ATP (Km level), 30 ng/ml ALK, 37° C., 15 minutes, read-out: ALK Activity (ALK kinase inhibition, IC50 class)
[6] = 1 μM ATP (Km level), 10 ng/mL c-Met, read-out: cMet Activity (c-Met kinase inhibition, IC50 class)
[7] = 1 μM ATP (Km level), read-out: ALK Activity (ALK Kinase Inhibition, IC50)
[8] = 1 μM ATP (Km level), read-out: cMet Activity (c-Met Kinase Inhibition, IC50)
[9] = ALK kinase inhibition, 1 μM ATP, read-out: ALK Activity
[10] = c-Met kinase inhibition, 1 μM ATP, read-out: cMet Activity

T2 sequence (P08581 956-1390 limits assumed): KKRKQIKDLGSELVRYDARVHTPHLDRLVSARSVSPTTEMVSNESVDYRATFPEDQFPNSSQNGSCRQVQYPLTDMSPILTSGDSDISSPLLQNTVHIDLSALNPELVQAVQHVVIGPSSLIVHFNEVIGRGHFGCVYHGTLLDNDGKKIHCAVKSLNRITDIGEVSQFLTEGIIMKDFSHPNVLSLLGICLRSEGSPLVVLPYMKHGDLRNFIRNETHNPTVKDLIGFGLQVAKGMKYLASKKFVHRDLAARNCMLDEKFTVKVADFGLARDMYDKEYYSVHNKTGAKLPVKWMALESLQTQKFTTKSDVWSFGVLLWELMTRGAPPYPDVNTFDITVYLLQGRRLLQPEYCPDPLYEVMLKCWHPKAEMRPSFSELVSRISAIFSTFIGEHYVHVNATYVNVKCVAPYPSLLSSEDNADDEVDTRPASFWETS
T1 sequence (Q9UM73 19-1620): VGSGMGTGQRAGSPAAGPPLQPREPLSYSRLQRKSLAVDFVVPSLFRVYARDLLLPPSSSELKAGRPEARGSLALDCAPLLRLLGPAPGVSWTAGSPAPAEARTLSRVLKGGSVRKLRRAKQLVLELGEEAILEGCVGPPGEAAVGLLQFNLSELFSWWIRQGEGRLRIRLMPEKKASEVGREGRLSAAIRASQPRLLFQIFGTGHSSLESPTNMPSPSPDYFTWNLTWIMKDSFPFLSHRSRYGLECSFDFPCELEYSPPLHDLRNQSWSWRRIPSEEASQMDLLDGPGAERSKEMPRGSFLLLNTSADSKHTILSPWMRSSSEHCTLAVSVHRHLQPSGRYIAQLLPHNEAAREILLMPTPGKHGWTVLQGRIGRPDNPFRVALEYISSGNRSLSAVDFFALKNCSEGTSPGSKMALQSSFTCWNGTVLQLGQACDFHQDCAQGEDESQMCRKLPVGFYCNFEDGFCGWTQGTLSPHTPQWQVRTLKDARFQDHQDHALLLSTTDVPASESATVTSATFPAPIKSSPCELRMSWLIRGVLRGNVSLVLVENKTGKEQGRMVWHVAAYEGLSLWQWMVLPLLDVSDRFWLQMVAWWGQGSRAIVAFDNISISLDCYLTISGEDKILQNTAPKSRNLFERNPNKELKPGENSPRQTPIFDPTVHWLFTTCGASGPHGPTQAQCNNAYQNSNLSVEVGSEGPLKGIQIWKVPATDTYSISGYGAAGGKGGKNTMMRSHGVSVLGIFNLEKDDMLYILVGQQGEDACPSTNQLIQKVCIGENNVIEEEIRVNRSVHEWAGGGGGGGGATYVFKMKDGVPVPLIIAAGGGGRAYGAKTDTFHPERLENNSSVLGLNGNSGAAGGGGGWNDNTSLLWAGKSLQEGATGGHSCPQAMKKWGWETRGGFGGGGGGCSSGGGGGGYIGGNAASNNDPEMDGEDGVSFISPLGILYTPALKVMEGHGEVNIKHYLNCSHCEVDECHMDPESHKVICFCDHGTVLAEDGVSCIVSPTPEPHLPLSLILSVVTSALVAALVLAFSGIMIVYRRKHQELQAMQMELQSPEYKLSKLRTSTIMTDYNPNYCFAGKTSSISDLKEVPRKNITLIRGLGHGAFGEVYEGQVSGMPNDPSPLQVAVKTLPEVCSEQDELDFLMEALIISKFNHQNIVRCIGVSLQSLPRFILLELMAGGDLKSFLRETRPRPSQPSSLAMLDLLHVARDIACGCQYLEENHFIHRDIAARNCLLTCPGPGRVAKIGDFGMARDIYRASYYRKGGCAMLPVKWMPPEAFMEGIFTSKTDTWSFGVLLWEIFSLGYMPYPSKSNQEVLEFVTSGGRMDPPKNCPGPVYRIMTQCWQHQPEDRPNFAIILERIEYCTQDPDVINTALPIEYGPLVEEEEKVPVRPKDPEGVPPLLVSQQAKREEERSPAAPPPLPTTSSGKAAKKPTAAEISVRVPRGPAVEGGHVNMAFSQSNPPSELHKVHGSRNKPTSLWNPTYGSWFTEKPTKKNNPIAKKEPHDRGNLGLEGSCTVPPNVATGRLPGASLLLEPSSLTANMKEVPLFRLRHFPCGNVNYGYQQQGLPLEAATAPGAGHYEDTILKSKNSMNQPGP

## CNC(=O)c1ccccc1Nc1nc(Nc2ccc3c(c2)CCCCN3C)ncc1Cl [Example 103, 2-[5-Chloro-2-(1-methyl-2,3,4,5-tetrahydro-1H-benzo[b]azepin-7-ylamino)-pyrimidin-4-ylamino]-N-methyl-benzamide]
[1]; [3]
  IC50: < 100 nM
[2]; [4]
  IC50: < 100 nM

## COCCNC1CCc2cc(Nc3ncc(Cl)c(Nc4ccccc4S(=O)(=O)N4CCC(O)C4)n3)c(OC)cc2CC1 (stereo not shown) [Example 1082, 1-(2-{5-Chloro-2-[3-methoxy-7-(2-methoxy-ethylamino)-6,7,8,9-tetrahydro-5H-benzocyclohepten-2-ylamino]-pyrimidin-4-ylamino}-benzenesulfonyl)-pyrrolidin-3-ol]
[1]; [5]
  IC50: < 100 nM
[2]; [6]
  IC50: 1000 to 10000 nM

## CC1(C)CCC(=O)Nc2ccc(Nc3ncc(Cl)c(Nc4ccccc4-c4cc(=O)[nH]c(=O)[nH]4)n3)cc21 [Example 988, 6-{2-[5-Chloro-2-(5,5-dimethyl-2-oxo-2,3,4,5-tetrahydro-1H-benzo[b]azepin-7-ylamino)-pyrimidin-4-ylamino]-phenyl}-1H-pyrimidine-2,4-dione]
[1]; [7]
  IC50: 1000 to 10000 nM
[2]; [8]
  IC50: > 10000 nM

## CN1CCN(C2CCc3ccc(Nc4ncc(Cl)c(Nc5ccccc5S(=O)(=O)N(C)C)n4)cc3CC2)CC1 (stereo not shown) [Example 890, 2-{5-Chloro-2-[7-(4-methyl-piperazin-1-yl)-6,7,8,9-tetrahydro-5H-benzocyclohepten-2-ylamino]-pyrimidin-4-ylamino}-N,N-dimethyl-benzenesulfonamide]
[1]; [7]
  IC50: < 100 nM
[2]; [8]
  IC50: 100 to 1000 nM

## CCN1C(=O)CCC(C)(C)c2ccc(Nc3ncc(Cl)c(Nc4ccccc4OCC#N)n3)cc21 [Example 1580, {2-[5-Chloro-2-(1-ethyl-5,5-dimethyl-2-oxo-2,3,4,5-tetrahydro-1H-benzo[b]azepin-8-ylamino)-pyrimidin-4-ylamino]-phenoxy}-acetonitrile]
[1]; [9]
  IC50: < 100 nM
[2]; [10]
  IC50: 100 to 1000 nM

## CC(C)[C@@H](Nc1nc(Nc2ccc3c(c2)CC(=O)N(C)CC3)ncc1Cl)C(N)=O [Example 1822, (R)-2-[5-Chloro-2-(3-methyl-4-oxo-2,3,4,5-tetrahydro-1H-benzo[d]azepin-7-ylamino)-pyrimidin-4-ylamino]-3-methyl-butyramide]
[1]; [9]
  IC50: 1000 to 10000 nM
[2]; [10]
  IC50: 1000 to 10000 nM

## CNC(=O)c1cnn(C)c1Nc1nc(Nc2ccc3c(c2)CCOC(=O)N3C)ncc1Cl [Example 1776, 5-[5-Chloro-2-(5-methyl-6-oxo-5,6,8,9-tetrahydro-7-oxa-5-aza-benzocyclohepten-2-ylamino)-pyrimidin-4-ylamino]-1-methyl-1H-pyrazole-4-carboxylic acid methylamide]
[1]; [9]
  IC50: 1000 to 10000 nM
[2]; [10]
  IC50: 100 to 1000 nM

## COc1cc2c(cc1Nc1ncc(Cl)c(N[C@H]3[C@@H](C(N)=O)[C@@H]4C=C[C@H]3C4)n1)CCN(CC1CC1)CC2 [Example 775, (1S,2S,3R,4R)-3-[5-Chloro-2-(3-cyclopropylmethyl-8-methoxy-2,3,4,5-tetrahydro-1H-benzo[d]azepin-7-ylamino)-pyrimidin-4-ylamino]-bicyclo[2.2.1]hept-5-ene-2-carboxylic acid amide]
[1]; [7]
  IC50: < 100 nM
[2]; [8]
  IC50: > 10000 nM

## CNC(=O)c1ccccc1Nc1nc(Nc2ccc3c(c2)CCC(NCC(F)(F)F)CC3)ncc1Cl (stereo not shown) [Example 651, 2-{5-Chloro-2-[7-(2,2,2-trifluoro-ethylamino)-6,7,8,9-tetrahydro-5H-benzocyclohepten-2-ylamino]-pyrimidin-4-ylamino}-N-methyl-benzamide]
[1]; [7]
  IC50: < 100 nM
[2]; [8]
  IC50: < 100 nM

## CC1(C)CCC(=O)Nc2ccc(Nc3ncc(Cl)c(Nc4ccccc4-c4ncccn4)n3)cc21 [Example 976, 7-[5-Chloro-4-(2-pyrimidin-2-yl-phenylamino)-pyrimidin-2-ylamino]-5,5-dimethyl-1,3,4,5-tetrahydro-benzo[b]azepin-2-one]
[1]; [7]
  IC50: < 100 nM
[2]; [8]
  IC50: > 10000 nM

## COc1cc2c(cc1Nc1ncc(Cl)c(Nc3ccccc3-n3cccn3)n1)CCC(NCCO)CC2 (stereo not shown) [Example 1091, 2-{2-[5-Chloro-4-(2-pyrazol-1-yl-phenylamino)-pyrimidin-2-ylamino]-3-methoxy-6,7,8,9-tetrahydro-5H-benzocyclohepten-7-ylamino}-ethanol]
[1]; [5]
  IC50: < 100 nM
[2]; [6]
  IC50: 1000 to 10000 nM

## CCN1CC(=O)N(CC)c2cc(Nc3ncc(Cl)c(Nc4c(F)cccc4C(=O)NC)n3)ccc2C1 [Example 1870, 2-[5-Chloro-2-(1,4-diethyl-2-oxo-2,3,4,5-tetrahydro-1H-benzo[e][1,4]diazepin-8-ylamino)-pyrimidin-4-ylamino]-3-fluoro-N-methyl-benzamide]
[1]; [9]
  IC50: 100 to 1000 nM
[2]; [10]
  IC50: < 100 nM

## COc1cc2c(cc1Nc1ncc(C(F)(F)F)c(Nc3ccc(N4CCOCC4)cc3OC)n1)N(C)C(=O)OCC2 [Example 1518, 2-Methoxy-3-[4-(2-methoxy-4-morpholin-4-yl-phenylamino)-5-trifluoromethyl-pyrimidin-2-ylamino]-5-methyl-8,9-dihydro-5H-7-oxa-5-aza-benzocyclohepten-6-one]
[1]; [9]
  IC50: 100 to 1000 nM
[2]; [10]
  IC50: 1000 to 10000 nM

## COc1cc2c(cc1Nc1ncc(Cl)c(Nc3ccccc3OC)n1)CCOC(=O)N2C [Example 1508, 2-[5-Chloro-4-(2-methoxy-phenylamino)-pyrimidin-2-ylamino]-3-methoxy-5-methyl-8,9-dihydro-5H-7-oxa-5-aza-benzocyclohepten-6-one]
[1]; [9]
  IC50: < 100 nM
[2]; [10]
  IC50: > 10000 nM

## COc1cc2c(cc1Nc1ncc(Cl)c(Nc3ccccc3-n3cccn3)n1)CCN(CC(F)F)CC2 [Example 823, 5-Chloro-N*2*-[3-(2,2-difluoro-ethyl)-8-methoxy-2,3,4,5-tetrahydro-1H-benzo[d]azepin-7-yl]-N*4*-(2-pyrazol-1-yl-phenyl)-pyrimidine-2,4-diamine]
[1]; [7]
  IC50: < 100 nM
[2]; [8]
  IC50: > 10000 nM

## CCNC(=O)c1ccccc1Nc1nc(Nc2cc3c(cc2OC)CC(=O)N(CC)CC3)ncc1Cl [Example 255, 2-[5-Chloro-2-(3-ethyl-8-methoxy-2-oxo-2,3,4,5-tetrahydro-1H-benzo[d]azepin-7-ylamino)-pyrimidin-4-ylamino]-N-ethyl-benzamide]
[1]; [3]
  IC50: < 100 nM
[2]; [4]
  IC50: > 10000 nM

## CNC(=O)c1ccccc1Nc1nc(Nc2ccc3c(c2)CCC(=O)CC3)ncc1Cl [Example 172, 2-[5-Chloro-2-(7-oxo-6,7,8,9-tetrahydro-5H-benzocyclo-hepten-2-ylamino)-pyrimidin-4-ylamino]-N-methyl-benzamide]
[1]; [3]
  IC50: < 100 nM
[2]; [4]
  IC50: < 100 nM

## CNC(=O)[C@@H]1CCC[C@@H]1Nc1nc(Nc2cc3c(cc2OC)CCN(CC(=O)N(C)C)CC3)ncc1Cl (relative stereo) [Example 375, cis-2-[5-Chloro-2-(3-dimethylcarbamoylmethyl-8-methoxy-2,3,4,5-tetrahydro-1H-benzo[d]azepin-7-ylamino)-pyrimidin-4-ylamino]-cyclopentanecarboxylic acid methylamide]
[1]; [3]
  IC50: < 100 nM
[2]; [4]
  IC50: > 10000 nM

## COc1cc2c(cc1Nc1ncc(Cl)c(N[C@H]3[C@@H](C(N)=O)[C@@H]4C=C[C@H]3C4)n1)NC(=O)CN(CC1CC1)C2 [Example 1667, (1S,2S,3R,4R)-3-[5-Chloro-2-(4-cyclopropylmethyl-7-methoxy-2-oxo-2,3,4,5-tetrahydro-1H-benzo[e][1,4]diazepin-8-ylamino)-pyrimidin-4-ylamino]-bicyclo[2.2.1]hept-5-ene-2-carboxylic acid amide]
[1]; [9]
  IC50: < 100 nM
[2]; [10]
  IC50: > 10000 nM

## COc1cc2c(cc1Nc1ncc(Cl)c(N[C@H]3[C@@H](C(N)=O)[C@@H]4C=C[C@H]3C4)n1)CCN(C[C@@H](C)O)CC2 [Example 1559, (1S,2S,3R,4R)-3-{5-Chloro-2-[3-((R)-2-hydroxy-propyl)-8-methoxy-2,3,4,5-tetrahydro-1H-3-benzazepin-7-ylamino]-pyrimidin-4-ylamino}-bicyclo[2.2.1]hept-5-ene-2-carboxylic acid amide]
[1]; [9]
  IC50: < 100 nM
[2]; [10]
  IC50: > 10000 nM

## CN1C(=O)OCCc2cc(Nc3ncc(Cl)c(Oc4c(F)cccc4OC4CCOC4)n3)ccc21 (stereo not shown) [Example 1307, 2-{5-Chloro-4-[2-fluoro-6-(tetrahydro-furan-3-yloxy)-phenoxy]-pyrimidin-2-ylamino}-5-methyl-8,9-dihydro-5H-7-oxa-5-aza-benzocyclohepten-6-one]
[1]; [5]
  IC50: 100 to 1000 nM
[2]; [6]
  IC50: 1000 to 10000 nM

## CN(C)CCN1CCCC(C)(C)c2ccc(Nc3ncc(Cl)c(N[C@H]4[C@@H](C(N)=O)[C@@H]5C=C[C@H]4C5)n3)cc21 [Example 1640, (1S,2S,3R,4R)-3-{5-Chloro-2-[1-(2-dimethylamino-ethyl)-5,5-dimethyl-2,3,4,5-tetrahydro-1H-benzo[b]azepin-8-ylamino]-pyrimidin-4-ylamino}-bicyclo[2.2.1]hept-5-ene-2-carboxylic acid amide]
[1]; [9]
  IC50: < 100 nM
[2]; [10]
  IC50: < 100 nM

## COc1cc2c(cc1Nc1ncc(Cl)c(NC3(C(=O)OC(C)C)CCCC3)n1)CCN(CC(=O)N(C)C)CC2 [Example 1202, 1-[5-Chloro-2-(3-dimethylcarbamoylmethyl-8-methoxy-2,3,4,5-tetrahydro-1H-benzo[d]azepin-7-ylamino)-pyrimidin-4-ylamino]-cyclopentanecarboxylic acid isopropyl ester]
[1]; [5]
  IC50: 100 to 1000 nM
[2]; [6]
  IC50: > 10000 nM
